This is an account of results in patent US12187722B2, “Small molecule inhibitors of TEAD transcription factors” (The General Hospital Corporation, priority 2019, dated 2025).

The term inhibition denotes the drop in the measured response relative to a control, in per cent.

Values joined by “and” are separate entries in the source; they are usually repeats but may differ in a detail not shown here. Equal values may be shown once.

TEAD2, sequence (Q15562 whole entry): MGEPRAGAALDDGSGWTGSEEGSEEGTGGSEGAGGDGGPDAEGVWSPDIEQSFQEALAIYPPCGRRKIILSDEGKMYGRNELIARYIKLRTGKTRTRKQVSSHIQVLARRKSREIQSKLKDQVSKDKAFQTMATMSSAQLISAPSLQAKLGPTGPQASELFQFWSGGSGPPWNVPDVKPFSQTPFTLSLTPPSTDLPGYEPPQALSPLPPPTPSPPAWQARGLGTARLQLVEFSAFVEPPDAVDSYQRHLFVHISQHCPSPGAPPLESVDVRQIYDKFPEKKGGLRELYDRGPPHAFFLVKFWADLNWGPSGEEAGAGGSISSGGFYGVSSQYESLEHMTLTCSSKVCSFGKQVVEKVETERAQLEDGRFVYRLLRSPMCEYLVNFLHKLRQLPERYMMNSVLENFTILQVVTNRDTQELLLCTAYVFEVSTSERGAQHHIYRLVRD

In this assay the target is TEAD2 (Homo sapiens (Human), UniProt Q15562). The assay is described as follows: In vitro palmitoylation (TEAD2 autopalmitoylation, streptavidin blot). The class given is biochemical. As to conditions: compound at 10 μM; Table 2. The gist of the method:
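Autopalmitoylation read by streptavidin-HRP Western blot after CuSO4/TBTA/TCEP click with 100 μM biotin-azide, 1 h RT, with His-HRP probed separately. Before that, TEAD2 protein (GST or His6, 500 ng) given compound for 15 min then 1 μM alkyne palmitoyl-CoA for 30 min; percent inhibition versus DMSO-treated samples.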
In the case of `CN(c1ccc(C23CC4CC(CC(C4)C2)C3)cc1)c1ccc(N(C)c2ncccc2C(=O)O)cc1C(F)(F)F` [Compound 156], the inhibition at 10 µM was found to be 92%.

Regarding `O=C(Nc1ccc(Nc2ccccc2C(=O)O)cc1)c1ccc(C23CC4CC(CC(C4)C2)C3)cc1` [Compound 157], the inhibition at 10 µM was found to be 80%.

As to `CN(c1ccc(N(C)c2ccc(C34CC5CC(CC(C5)C3)C4)cc2)c(C(F)(F)F)c1)c1ccccc1C(=O)O` [Compound 158], the inhibition at 10 µM was found to be 100%.

As to `CCCCN(CCCC)C(=O)c1ccc(Nc2ccccc2C(=O)O)cc1` [Compound 159], the inhibition at 10 µM is 41%. For the molecule `CN(c1ccc(C23CC4CC(CC(C4)C2)C3)cc1)c1ccc(N(C)c2ccccc2C(=O)O)cn1` [Compound 160], the inhibition at 10 µM is 84%.

`CCN(c1ccc(N(CC)c2ccccc2C(=O)O)cc1)c1ccc(C23CC4CC(CC(C4)C2)C3)cc1` [Compound 163]: the inhibition at 10 µM came out at 85%. The same measure, in the same setting: under `CC(=O)N(c1ccc(N(C(C)=O)c2ccccc2C(=O)O)cc1)c1ccc(C23CC4CC(CC(C4)C2)C3)cc1` [Compound 164] stands 20%. As for `CN(c1ccc(Nc2ccc(C34CC5CC(CC(C5)C3)C4)cc2)cc1)c1ccccc1C(=O)O` [Compound 165], the “% of inhibition of TEAD2 palmitoylation at 10 μM” value (“% of inhibition … at 10 μM” below) worked out at 85%. As to `O=C(O)c1ccccc1Nc1ccc(Oc2ccc(C34CC5CC(CC(C5)C3)C4)cc2Cl)cc1` [Compound 166], the inhibition at 10 µM came to 98%. Same read-out and setting: under `O=C(NC12CC3CC(CC(C3)C1)C2)c1ccc(Nc2ccccc2C(=O)O)cc1` [Compound 167] stands 43%. On the same count and under the same terms, the same measure for `CCCCN(CCCC)Cc1ccc(Nc2ccc(Nc3ccccc3C(=O)O)cc2)cc1` [Compound 169]: 42%; for `CCCCN(CCCC)c1ccc(NC(=O)c2ccc(Nc3ccccc3C(=O)O)cc2)cc1` [Compound 170]: 62%; for `CCN(c1ccc(N(C)c2ccc(C34CC5CC(CC(C5)C3)C4)cc2)cc1)c1ccccc1C(=O)O` [Compound 171]: 75%. On the same count and under the same terms, under `CN(c1ccc(Nc2ccccc2C(=O)O)cc1)c1ccc(C23CC4CC(CC(C4)C2)C3)cc1` [Compound 172] stands 100%. In the case of `Cn1c(-c2ccc(Nc3ccc(C45CC6CC(CC(C6)C4)C5)cc3)cc2)nc2cccc(C(=O)O)c21` [Compound 173], the inhibition at 10 µM was 51%. Same read-out and setting: the same measure for `CCCCN(c1ccccc1)c1ccc(Nc2ccc(Nc3ccccc3C(=O)O)cc2)cc1` [Compound 174]: 85%. In the case of `CCCCN(CCCC)C(=O)c1ccc(Nc2ccc(Nc3ccccc3C(=O)O)cc2)cc1` [Compound 175], the inhibition at 10 µM amounted to 70%. For `O=C(NC12CC3CC(CC(C3)C1)C2)c1ccc(Nc2ccc(Nc3ccccc3C(=O)O)cc2)cc1` [Compound 176], the “% of inhibition … at 10 μM” value is 89%. For `CC12CC3CC(C)(C1)CC(c1ccc(Nc4ccc(Nc5ccccc5C(=O)O)cc4)cc1)(C3)C2` [Compound 177], the inhibition at 10 µM turned out to be 56%. Still for that read-out and setting: under `O=C(Nc1ccc(Nc2ncccc2C(=O)O)cc1)Nc1ccc(C23CC4CC(CC(C4)C2)C3)cc1` [Compound 180] stands 81%.

On to `O=C(CNc1ccc(Nc2ncccc2C(=O)O)cc1)Nc1ccc(C23CC4CC(CC(C4)C2)C3)cc1` [Compound 181], for which the “% of inhibition … at 10 μM” value was 41% and the inhibition at 10 µM was 49%. Take `O=C(Nc1ccc(Nc2cccc(C(=O)O)n2)cc1)Nc1ccc(C23CC4CC(CC(C4)C2)C3)cc1` [Compound 182]: the inhibition at 10 µM was found to be 54%. As for `O=C(Nc1ccc(C23CC4CC(CC(C4)C2)C3)cc1Cl)c1ccc(Nc2ncccc2C(=O)O)cc1` [Compound 183], the “% of inhibition … at 10 μM” value amounted to 96% and the inhibition at 10 µM was found to be 100%.

As to `O=C(Cc1ccc(Nc2ncccc2C(=O)O)cc1)Nc1ccc(C23CC4CC(CC(C4)C2)C3)cc1` [Compound 184], the inhibition at 10 µM was found to be 71%. For `O=C(O)c1cccc(Nc2ccc(C(=O)Nc3ccc(C45CC6CC(CC(C6)C4)C5)cc3)cc2)c1` [Compound 185], the “% of inhibition … at 10 μM” value is 66% and 91%.

Turning to `O=C(O)c1ccccc1Nc1ccc(N(c2ccc(C34CC5CC(CC(C5)C3)C4)cc2)C(F)(F)F)cc1` [Compound 186], the inhibition at 10 µM was determined as 76%. With `CCCCN(c1ccccc1)c1ccc(N(C)c2ccc(N(C)c3ccccc3C(=O)O)cc2)cc1` [Compound 187], the inhibition at 10 µM was found to be 57%. On the same count and under the same terms, the same measure for `O=C(O)c1cccnc1Nc1ccc(S(=O)(=O)Nc2ccc(C34CC5CC(CC(C5)C3)C4)cc2)cc1` [Compound 188]: 101%. Same read-out and setting: the same measure for `O=C(Nc1ccc(Nc2ccccc2C(=O)O)cc1)Nc1ccc(C23CC4CC(CC(C4)C2)C3)cc1` [Compound 189]: 34%; for `O=C(O)c1ccccc1Nc1ccc(S(=O)(=O)Nc2ccc(C34CC5CC(CC(C5)C3)C4)cc2)cc1` [Compound 190]: 85%; for `CN(c1ccc(C#Cc2ccc(C34CC5CC(CC(C5)C3)C4)cc2)cc1)c1ccccc1C(=O)O` [Compound 191]: 85%. As for `CN(C(=O)c1ccc(Nc2ccccc2C(=O)O)cc1)c1ccc(C23CC4CC(CC(C4)C2)C3)cc1` [Compound 192], the inhibition at 10 µM was 99%. With `CN(c1ccc(Nc2cccc(C(=O)O)n2)cc1)c1ccc(C23CC4CC(CC(C4)C2)C3)cc1` [Compound 193], the inhibition at 10 µM came out at 86%.

Regarding `O=C(O)c1cccc(Nc2ccc(S(=O)(=O)Nc3ccc(C45CC6CC(CC(C6)C4)C5)cc3)cc2)n1` [Compound 194], the inhibition at 10 µM was 20%. `CCCCN(c1ccccc1)c1ccc(NC(=O)c2ccc(Nc3ccccc3C(=O)O)cc2)cc1` [Compound 195]: the inhibition at 10 µM worked out at 0%. Same read-out and setting: the same measure for `CN(c1ccc(Oc2ccc(C34CC5CC(CC(C5)C3)C4)cc2)cc1)c1ncccc1C(=O)O` [Compound 196]: 100%; for `O=C(Nc1ccccc1C(=O)O)c1ccc(Nc2ccc(C34CC5CC(CC(C5)C3)C4)cc2)cc1` [Compound 197]: 100%.

With `O=C(O)c1cccc(NC(=O)c2ccc(Nc3ccc(C45CC6CC(CC(C6)C4)C5)cc3)cc2)c1` [Compound 198], the inhibition at 10 µM was determined as 99%.

`Cn1c(-c2ccc(Nc3ccc(C45CC6CC(CC(C6)C4)C5)cc3)cc2)nc2c(C(=O)O)cccc21` [Compound 199]: the inhibition at 10 µM stood at 6%. Still for that read-out and setting: under `CN(c1ccc(N2CC(Oc3ccc(C45CC6CC(CC(C6)C4)C5)cc3)C2)cc1)c1ccccc1C(=O)O` [Compound 200] stands 32%. Take `CC12CC3CC(C)(C1)CC(c1ccc(Nc4ccc(Nc5cccc(C(=O)O)n5)cc4)cc1)(C3)C2` [Compound 201]: the inhibition at 10 µM amounted to 43%. Still for that read-out and setting: the same measure for `CCCCN(c1ccccc1)c1ccc(Nc2ccc(Nc3cccc(C(=O)O)n3)cc2)cc1` [Compound 202]: 49%; for `O=C(O)c1cccc(Nc2ccc(Oc3ccc(C45CC6CC(CC(C6)C4)C5)cc3Cl)cc2)n1` [Compound 203]: 95%; for `CN(c1ccc(N(c2ccc(C(=O)O)cn2)c2ccc(C(=O)O)cn2)cc1)c1ccc(C23CC4CC(CC(C4)C2)C3)cc1` [Compound 204]: 99%.

On to `O=C(O)c1ccccc1Nc1ccc(Nc2ccc(OCC34CC5CC(CC(C5)C3)C4)cc2)cc1` [Compound 205], for which the inhibition at 10 µM stood at 74%. For `CN(C(=O)c1ccc(Nc2cccc(C(=O)O)n2)cc1)c1ccc(C23CC4CC(CC(C4)C2)C3)cc1` [Compound 206], the inhibition at 10 µM turned out to be 52%. Turning to `CN(c1ccc(C23CC4CC(CC(C4)C2)C3)cc1)S(=O)(=O)c1ccc(Nc2ncccc2C(=O)O)cc1` [Compound 207], the inhibition at 10 µM is 99%. Still for that read-out and setting: under `CN(c1ccc(OCC23CC4CC(CC(C4)C2)C3)cc1)c1ccc(N(C)c2ccccc2C(=O)O)cc1` [Compound 208] stands 100%; under `CC(C)c1ccccc1-c1ccc(Nc2ccc(Nc3cccc(C(=O)O)n3)cc2)cc1` [Compound 209], 54%; under `Cn1c(-c2cccc(Nc3ccc(C45CC6CC(CC(C6)C4)C5)cc3)c2)nc2cccc(C(=O)O)c21` [Compound 210], 100%. On the same count and under the same terms, under `CC(C)c1ccccc1-c1ccc(NC(=O)c2ccc(Nc3ccccc3C(=O)O)cc2)cc1` [Compound 211] stands 67%. On the same count and under the same terms, the same measure for `O=C(Nc1ccc(C23CC4CC(CC(C4)C2)C3)cc1)c1ccc(Oc2cccc(C(=O)O)n2)cc1` [Compound 212]: 77%. For the molecule `O=C(Cc1ccc(Nc2ccc(C34CC5CC(CC(C5)C3)C4)cc2)cc1)Nc1ccccc1C(=O)O` [Compound 213], the inhibition at 10 µM is 90%.

Turning to `O=C(Nc1ccc(C23CC4CC(CC(C4)C2)C3)cc1)c1cccc(Nc2ccccc2C(=O)O)c1` [Compound 214], the “% of inhibition … at 10 μM” value is 73% and the inhibition at 10 µM was 88%.

In the case of `O=C(Nc1ccc(C23CC4CC(CC(C4)C2)C3)cc1)c1ccc(Oc2ccccc2C(=O)O)cc1` [Compound 215], the inhibition at 10 µM came to 87%. Still for that read-out and setting: under `CC12CC3CC(C)(C1)CC(c1ccc(NC(=O)c4ccc(Nc5ccccc5C(=O)O)cc4)cc1)(C3)C2` [Compound 216] stands 89%; under `O=C(Nc1ncccc1C(=O)O)c1ccc(Nc2ccc(C34CC5CC(CC(C5)C3)C4)cc2)cc1` [Compound 217], 55%; under `CN(c1ccc(N2CCN(c3ccc(C45CC6CC(CC(C6)C4)C5)cc3)CC2)cc1)c1ccccc1C(=O)O` [Compound 218], 0%. On the same count and under the same terms, under `O=C(NC12CC3CC(CC(C3)C1)C2)c1ccc(Nc2ccc(Nc3cccc(C(=O)O)n3)cc2)cc1` [Compound 219] stands 0%; under `O=C(CCc1ccc(Nc2ccccc2C(=O)O)cc1)Nc1ccc(C23CC4CC(CC(C4)C2)C3)cc1` [Compound 220], 10%; under `CN(C(=O)c1ccc(Nc2ccc(C34CC5CC(CC(C5)C3)C4)cc2)cc1)c1ccccc1C(=O)O` [Compound 221], 61%.
